Measured values published in ChEMBL document CHEMBL2074033, “In vivo imaging of hepatobiliary transport function mediated by multidrug resistance associated protein and P-glycoprotein” (Cancer Chemother Pharmacol, 2004).

Target: ATP-dependent translocase ABCB1 (Homo sapiens, UniProt P08183)
Assay: TP_TRANSPORTER: cell accumulation in GLP4/P-gp cells
Assay type: functional, cell-based

ATP-dependent translocase ABCB1, sequence (P08183 whole entry): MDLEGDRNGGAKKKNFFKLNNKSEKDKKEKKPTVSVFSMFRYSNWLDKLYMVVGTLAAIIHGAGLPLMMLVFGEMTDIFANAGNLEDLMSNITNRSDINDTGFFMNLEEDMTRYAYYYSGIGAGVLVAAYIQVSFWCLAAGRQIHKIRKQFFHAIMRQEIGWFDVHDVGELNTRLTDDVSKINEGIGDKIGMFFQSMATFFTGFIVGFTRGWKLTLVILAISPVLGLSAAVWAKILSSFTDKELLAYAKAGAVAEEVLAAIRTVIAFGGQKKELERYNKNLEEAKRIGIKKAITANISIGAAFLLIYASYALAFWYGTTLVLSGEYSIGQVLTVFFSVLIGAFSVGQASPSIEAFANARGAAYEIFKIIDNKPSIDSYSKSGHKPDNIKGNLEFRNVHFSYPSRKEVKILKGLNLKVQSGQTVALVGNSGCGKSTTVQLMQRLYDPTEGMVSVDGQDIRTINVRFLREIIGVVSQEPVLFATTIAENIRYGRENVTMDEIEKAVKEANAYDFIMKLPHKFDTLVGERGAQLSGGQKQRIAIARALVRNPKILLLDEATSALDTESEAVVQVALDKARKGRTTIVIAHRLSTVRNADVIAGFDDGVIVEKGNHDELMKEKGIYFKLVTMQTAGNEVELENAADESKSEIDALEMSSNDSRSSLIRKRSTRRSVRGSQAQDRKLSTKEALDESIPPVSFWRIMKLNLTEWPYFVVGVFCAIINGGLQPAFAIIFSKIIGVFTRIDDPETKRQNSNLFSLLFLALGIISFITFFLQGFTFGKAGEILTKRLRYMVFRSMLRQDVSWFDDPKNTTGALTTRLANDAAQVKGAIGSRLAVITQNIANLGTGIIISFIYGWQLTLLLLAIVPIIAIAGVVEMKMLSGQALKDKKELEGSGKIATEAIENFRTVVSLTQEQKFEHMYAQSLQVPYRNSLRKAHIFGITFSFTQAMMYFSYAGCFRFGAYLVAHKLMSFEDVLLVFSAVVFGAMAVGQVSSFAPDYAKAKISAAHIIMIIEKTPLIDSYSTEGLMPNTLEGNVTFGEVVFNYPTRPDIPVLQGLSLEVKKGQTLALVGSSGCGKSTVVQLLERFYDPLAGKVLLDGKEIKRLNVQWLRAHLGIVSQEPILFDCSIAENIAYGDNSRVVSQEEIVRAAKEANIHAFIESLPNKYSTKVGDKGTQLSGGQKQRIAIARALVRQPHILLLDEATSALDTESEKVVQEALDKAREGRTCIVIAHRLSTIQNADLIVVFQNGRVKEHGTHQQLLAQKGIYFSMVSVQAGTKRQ

TECHNETIUM TC 99M DISOFENIN
Activity: is not a substrate [-]
